This note sets out measurements from patent US11629171B2, “Beta-hairpin peptidomimetics” (POLYPHOR AG, priority 2017, dated 2023).

In general, MIC refers to the lowest concentration found to suppress growth.

The structures appear in SMILES notation. ≈ marks a conversion by molar mass, not a printed value. Where a SMILES comes first, the peptide text is derived from it. Bridges are numbered along the chain shown (N, C = ends). Roman numbers before positions name the chains, in order. [ ]: non-standard residue; d: D form. The star is where a group is joined. Tyrosinol = OC[C@H](Cc1ccc(O)cc1)N*; Thr(ol) = C[C@@H](O)[C@H](N)CO; Tle = CC(C)(C)[C@H](N)C(=O)O; Hiv = CC(C)[C@H](O)C(=O)O; Isovaleryl = CC(C)CC(=O)*; dDab = NCC[C@@H](N)C(=O)O; hSer = N[C@@H](CCO)C(=O)O; Dab = NCC[C@H](N)C(=O)O; Dap = NC[C@H](N)C(=O)O; NHCH2CH2OH = OCCN*

Holding throughout (type): cell-based
The test system of series [1] is Acinetobacter baumannii 872842. Conditions: 872842. In outline:
(§1)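 CLSI broth microdilution in cation-adjusted Mueller-Hinton II broth with 0.002% polysorbate 80 (final), inoculum appr. 10^6 CFU/mL, peptides in serial two-fold dilutions. MIC (μg/mL) is the lowest concentration without visible growth after 18-20 h at 35° C.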

In series [2] the test system is Acinetobacter baumannii DSM 30008. Conditions: DSM 30008. Put shortly:
as §1

Series [3] has as its system Enterobacter cloacae 848840. Conditions: 848840. Put shortly:
as §1

Series [4] concerns Escherichia coli 926415. Conditions: 926415. In outline: as §1
The subject of series [5] is Escherichia coli ATCC 25922. Conditions: ATCC 25922. Put shortly: as §1
In series [6] the test system is Klebsiella pneumoniae 968733. Conditions: 968733. In outline:
as §1

In series [7] the test system is Klebsiella pneumoniae SSI #3010. Conditions: SSI #3010. Put shortly: as §1
Series [8] relates to Pseudomonas aeruginosa ATCC 27853. Conditions: ATCC 27853. In outline: as §1
The test system of series [9] is human red blood cells (hRBC). Description: Hemolysis. Conditions: red cells of human, 1 h, 200. In outline:
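Read-out is supernatant absorbance at 540 nm, normalised to full lysis by 2% Triton X-100 and zero lysis by PBS with 10% water. Peptides (200 μg/mL) were exposed to 20% v/v washed human erythrocytes at 37° C for 1 h under shaking.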

Regarding `CC(=O)N[C@H](C(=O)N[C@H]1CSSC[C@@H](C(=O)N[C@@H](CO)C(N)=O)NC(=O)[C@H](C(C)(C)C)NC(=O)[C@H](CO)NC(=O)[C@H](Cc2c[nH]c3ccccc23)NC(=O)[C@H](CCN)NC(=O)[C@@H](CCN)NC(=O)[C@H](CCC(=O)N[C@@H](CCN)C(=O)N[C@H](C(=O)N[C@@H](CN)C(=O)N[C@H]2CCNC(=O)[C@H]([C@@H](C)O)NC(=O)[C@H](CCN)NC(=O)[C@H](CCN)NC(=O)[C@H](CC(C)C)NC(=O)[C@@H](CC(C)C)NC(=O)[C@H](CCN)NC2=O)[C@@H](C)O)NC(=O)[C@H](CN)NC(=O)[C@H](Cc2ccc(O)cc2)NC1=O)C(C)C` [Ex. 120] (I: Ac-VCY[Dap]E[dDab][Dab]WS[Tle]CS-NH2 / II: [Dab]T[Dap][Dab][Dab][dL]L[Dab][Dab]T; disulfide I:2-I:11; amide I:5-II:N; lactam II:4-II:C), the MIC in [1] was determined as 0.0625 µg/mL (≈ 0.0259 µM); in [2] it was 0.0625 µg/mL (≈ 0.0259 µM); in [3], 0.25 µg/mL (≈ 0.104 µM); in [4] it was 0.0625 µg/mL (≈ 0.0259 µM); in series [5] it was 0.125 µg/mL (≈ 0.0518 µM); in series [6] it was 0.125 µg/mL (≈ 0.0518 µM). Also, the MIC is 0.0625 µg/mL (≈ 0.0259 µM) in series [7] and 0.125 µg/mL (≈ 0.0518 µM) in [8]. Moreover, the “Hemolysis at 200 μg/mL” value in [9] is 1%.
Turning to `CC(C)C[C@@H]1NC(=O)[C@@H](CC(C)C)NC(=O)[C@H](CCN)NC(=O)[C@@H](NC(=O)[C@H](CCN)NC(=O)[C@@H](NC(=O)[C@H](CCN)NC(=O)CC[C@@H]2NC(=O)[C@H](CCN)NC(=O)[C@H]([C@@H](C)O)NC(=O)[C@@H](NC(=O)[C@@H](O)C(C)C)CSSC[C@@H](C(=O)N[C@H](CO)Cc3ccc(O)cc3)NC(=O)[C@H](C(C)(C)C)NC(=O)[C@H](CO)NC(=O)[C@H](Cc3c[nH]c4ccccc34)NC(=O)[C@H](CCO)NC(=O)[C@@H](CCN)NC2=O)[C@@H](C)O)CCNC(=O)[C@H]([C@@H](C)O)NC(=O)[C@H](CCN)NC(=O)[C@H](CCN)NC1=O` [Ex. 93] (I: H-[Hiv]CT[Dab]E[dDab][hSer]WS[Tle]C-Tyrosinol / II: [Dab]T[Dab][Dab][Dab][dL]L[Dab][Dab]T; disulfide I:2-I:11; amide I:5-II:N; lactam II:4-II:C), the minimum inhibitory concentration (MIC) in series [1] was determined as 0.5 µg/mL (≈ 0.208 µM); in series [2], 0.25 µg/mL (≈ 0.104 µM); in [3], 0.25 µg/mL (≈ 0.104 µM); in series [4], 0.25 µg/mL (≈ 0.104 µM); in series [5], 0.125 µg/mL (≈ 0.0521 µM); in series [6] it was 0.5 µg/mL (≈ 0.208 µM). Further, the MIC came out at 0.125 µg/mL (≈ 0.0521 µM) in series [7] and 0.25 µg/mL (≈ 0.104 µM) in [8]. In [9], the “Hemolysis at 200 μg/mL” value is reported as less than 1%.
Regarding `CC(C)CC(=O)N[C@H]1CSSC[C@@H](C(=O)N[C@H](CO)[C@@H](C)O)NC(=O)[C@H](C(C)(C)C)NC(=O)[C@H](CO)NC(=O)[C@H](Cc2c[nH]c3ccccc23)NC(=O)[C@H](CCO)NC(=O)[C@@H](CCN)NC(=O)[C@H](CCC(=O)N[C@@H](CCN)C(=O)N[C@H](C(=O)N[C@@H](CCN)C(=O)N[C@H]2CCNC(=O)[C@H]([C@@H](C)O)NC(=O)[C@H](CCN)NC(=O)[C@H](CCN)NC(=O)[C@H](CC(C)C)NC(=O)[C@@H](CC(C)C)NC(=O)[C@H](CCN)NC2=O)[C@@H](C)O)NC(=O)[C@H](CCN)NC(=O)[C@H](Cc2ccc(O)cc2)NC1=O` [Example 2] (I: Isovaleryl-CY[Dab]E[dDab][hSer]WS[Tle]C[Thr(ol)] / II: [Dab]T[Dab][Dab][Dab][dL]L[Dab][Dab]T; disulfide I:1-I:10; amide I:4-II:N; lactam II:4-II:C), the MIC in series [1] was 0.125 µg/mL (≈ 0.0524 µM); in [2] it was 0.125 µg/mL (≈ 0.0524 µM); in series [3], 0.5 µg/mL (≈ 0.21 µM); in series [4], 0.125 µg/mL (≈ 0.0524 µM); in series [5], 0.125 µg/mL (≈ 0.0524 µM); in [6], 0.25 µg/mL (≈ 0.105 µM). Besides, the MIC in series [7] was found to be 0.5 µg/mL (≈ 0.21 µM); in series [8], 0.25 µg/mL (≈ 0.105 µM). In addition, in series [9], the “Hemolysis at 200 μg/mL” value is less than 1%.
Turning to `CC(=O)N[C@H](C(=O)N[C@H]1CSSC[C@@H](C(=O)N[C@@H](CO)C(N)=O)NC(=O)[C@H](C(C)C)NC(=O)[C@H](CCC(=O)O)NC(=O)[C@H](Cc2c[nH]c3ccccc23)NC(=O)[C@H](CCN)NC(=O)[C@@H](CCN)NC(=O)[C@H](CCC(=O)N[C@@H](CCN)C(=O)N[C@H](C(=O)N[C@@H](CN)C(=O)N[C@H]2CCNC(=O)[C@H]([C@@H](C)O)NC(=O)[C@H](CCN)NC(=O)[C@H](CCN)NC(=O)[C@H](CC(C)C)NC(=O)[C@@H](CC(C)C)NC(=O)[C@H](CCN)NC2=O)[C@@H](C)O)NC(=O)[C@H](CO)NC(=O)[C@H](Cc2ccc(O)cc2)NC1=O)C(C)C` [Ex. 268] (I: Ac-VCYSE[dDab][Dab]WEVCS-NH2 / II: [Dab]T[Dap][Dab][Dab][dL]L[Dab][Dab]T; disulfide I:2-I:11; amide I:5-II:N; lactam II:4-II:C), the MIC in [1] amounted to 0.125 µg/mL (≈ 0.0512 µM); in series [2], 0.03125 µg/mL (≈ 0.0128 µM); in series [3] it was 0.25 µg/mL (≈ 0.102 µM); in series [4], 0.5 µg/mL (≈ 0.205 µM); in [5] it was 0.0625 µg/mL (≈ 0.0256 µM); in series [6], 0.5 µg/mL (≈ 0.205 µM). For the same compound, the MIC in series [7] was 0.0625 µg/mL (≈ 0.0256 µM); in [8], 0.125 µg/mL (≈ 0.0512 µM). Besides, the “Hemolysis at 200 μg/mL” value in [9] is listed as less than 1%.
For `CC(C)C[C@@H]1NC(=O)[C@@H](CC(C)C)NC(=O)[C@H](CCN)NC(=O)[C@@H](NC(=O)[C@H](CCN)NC(=O)[C@@H](NC(=O)[C@H](CCN)NC(=O)CC[C@@H]2NC(=O)[C@@H](NC(=O)[C@H](CO)NC(=O)[C@@H](NC(=O)[C@@H](O)C(C)C)[C@@H](C)O)CSSC[C@@H](C(=O)N[C@H](C(=O)N[C@@H](C)C(=O)N[C@@H](Cc3ccc(O)cc3)C(=O)NCCO)C(C)(C)C)NC(=O)[C@H](Cc3c[nH]c4ccccc34)NC(=O)[C@H](CCO)NC(=O)[C@@H](CCN)NC2=O)[C@@H](C)O)CCNC(=O)[C@H]([C@@H](C)O)NC(=O)[C@H](CCN)NC(=O)[C@H](CCN)NC1=O` [Ex. 236] (I: H-[Hiv]TSCE[dDab][hSer]WC[Tle]AY-NHCH2CH2OH / II: [Dab]T[Dab][Dab][Dab][dL]L[Dab][Dab]T; disulfide I:4-I:9; amide I:5-II:N; lactam II:4-II:C), the MIC in series [1] is 2 µg/mL (≈ 0.823 µM); in [2] it was 0.25 µg/mL (≈ 0.103 µM); in series [3] it was 1 µg/mL (≈ 0.412 µM); in series [4] it was 2 µg/mL (≈ 0.823 µM); in series [5], 0.25 µg/mL (≈ 0.103 µM); in series [6] it was 8 µg/mL (≈ 3.29 µM). Besides, the MIC in [7] and in series [8] was 0.25 µg/mL (≈ 0.103 µM) throughout. Also, the “Hemolysis at 200 μg/mL” value in series [9] is less than 1%.
With `CC(C)C[C@@H]1NC(=O)[C@@H](CC(C)C)NC(=O)[C@H](CCN)NC(=O)[C@@H](NC(=O)[C@H](CCN)NC(=O)[C@@H](NC(=O)[C@H](CCN)NC(=O)CC[C@@H]2NC(=O)[C@H](CCN)NC(=O)[C@H](Cc3ccc(O)cc3)NC(=O)[C@@H](NC(=O)[C@@H](NC(=O)[C@H](N)CO)C(C)C)CSSC[C@@H](C(=O)N[C@@H](CO)C(=O)N[C@H](C)C(=O)O)NC(=O)[C@H](C(C)(C)C)NC(=O)[C@H](CO)NC(=O)[C@H](Cc3c[nH]c4ccccc34)NC(=O)[C@H]([C@@H](C)O)NC(=O)[C@@H](CCN)NC2=O)[C@@H](C)O)CCNC(=O)[C@H]([C@@H](C)O)NC(=O)[C@H](CCN)NC(=O)[C@H](CCN)NC1=O` [Ex. 241] (I: H-[dS]VCY[Dab]E[dDab]TWS[Tle]CS[dA]-OH / II: [Dab]T[Dab][Dab][Dab][dL]L[Dab][Dab]T; disulfide I:3-I:12; amide I:6-II:N; lactam II:4-II:C), the MIC worked out at 0.125 µg/mL (≈ 0.0489 µM) in series [1]; 0.125 µg/mL (≈ 0.0489 µM) in series [2]; 2 µg/mL (≈ 0.782 µM) in [3]; 1 µg/mL (≈ 0.391 µM) in [4]; 0.125 µg/mL (≈ 0.0489 µM) in [5]; 1 µg/mL (≈ 0.391 µM) in series [6]. Further, the MIC was 0.125 µg/mL (≈ 0.0489 µM) in [7] and 0.25 µg/mL (≈ 0.0977 µM) in [8]. The “Hemolysis at 200 μg/mL” value in [9] was less than 1%.
